The values below come from patent US6686343B1, “Triazolopurine derivatives, pharmaceutical compositions containing the derivatives, and adenosine A3 receptor affinitive agents” (Otsuka Pharmaceutical Factory, Inc., priority 1999, dated 2004).

Each structure is given as a SMILES string.

For the molecule `CCOCc1nc2nc[nH]c2c2nc(-c3ccc(C(C)(C)C)cc3)nn12` [Example 14, 8-(4-t-butylphenyl)-5-ethoxymethyl-1H-1,2,4-triazolo[5,1-i]purine], the melting point (commonly the temperature of the solid-liquid transition) was in the range of 243 to 244 °C.
The molecule `CCOP(=O)(CCCc1nc2nc[nH]c2c2nc(-c3ccc(-c4ccccc4)cc3)nn12)OCC` returned a melting point of 175 to 178 °C.
To `c1ccc(-c2ccc(-c3nc4c5[nH]cnc5nc(C5CCCCC5)n4n3)cc2)cc1` [Example 45, 8-(4-biphenylyl)-5-cyclohexyl-1H-1,2,4-triazolo[5,1-i]purine] belongs no less than 280 °C.
For the molecule `FC(F)(F)c1nc2nc[nH]c2c2nc(-c3ccc(-c4ccccc4)cc3)nn12` [Example 47, 8-(4-biphenylyl)-5-trifluoromethyl-1H-1,2,4-triazolo[5,1-i]purine], the melting point is no less than 280 °C.
Molecule `COCc1nc2nc[nH]c2c2nc(-c3ccc(C(C)(C)C)cc3)nn12` [Example 15, 8-(4-t-butylphenyl)-5-methoxymethyl-1H-1,2,4-triazolo[5,1-i]purine] had a melting point of no less than 280 °C.
The same measure for `COCCc1nc2nc[nH]c2c2nc(-c3ccc(Cl)cc3)nn12` [Example 28, 8-(4-chlorophenyl)-5-(2-methoxyethyl)-1H-1,2,4-triazolo[5,1-i]purine]: ≥ 278 °C (dec.); for `COCc1nc2nc[nH]c2c2nc(-c3ccc(-c4ccccc4)cc3)nn12` [Example 2, 8-(4-biphenylyl)-5-methoxymethyl-1H-1,2,4-triazolo[5,1-i]purine]: no less than 280 °C.
The same measure for `COC(=O)CCCc1nc2nc[nH]c2c2nc(-c3ccc(C(C)(C)C)cc3)nn12` [Example 23, 8-(4-t-butylphenyl)-5-(3-methoxycarbonylpropyl)-1H-1,2,4-triazolo[5,1-i]purine]: 169 to 172.5 °C; for `COCCc1nc2nc[nH]c2c2nc(-c3ccc(C(C)(C)C)cc3)nn12` [Example 16, 8-(4-t-butylphenyl)-5-(2-methoxyethyl)-1H-1,2,4-triazolo[5,1-i]purine]: 237 to 239 °C.
To `c1ccc(-c2ccc(-c3nc4c5[nH]cnc5nc(C5CCCC5)n4n3)cc2)cc1` [Example 46, 8-(4-biphenylyl)-5-cyclopentyl-1H-1,2,4-triazolo[5,1-i]purine] belongs no less than 280 °C; to `COCCc1nc2nc[nH]c2c2nc(-c3ccccc3)nn12` (hydrate or solvate) [Example 13, 5-(2-methoxyethyl)-8-phenyl-1H-1,2,4-triazolo[5,1-i]purine], 217.5 to 218.5 °C; to `CSCCc1nc2nc[nH]c2c2nc(-c3ccc(Cl)cc3)nn12` [Example 29, 8-(4-chlorophenyl)-5-(2-methylthioethyl)-1H-1,2,4-triazolo[5,1-i]purine], ≥ 257 °C (dec.).
`CCOP(=O)(Cc1nc2nc[nH]c2c2nc(-c3ccc(C(F)(F)F)cc3)nn12)OCC` gave a melting point of 196 to 198 °C.
Consider `CCOP(=O)(O)Cc1nc2nc[nH]c2c2nc(-c3ccc(-c4ccccc4)cc3)nn12`, for which the melting point lay in the range of 274 to 277 °C.
Take `COCCc1nc2nc[nH]c2c2nc(-c3ccc(C(F)(F)F)cc3)nn12` [Example 26, 5-(2-methoxyethyl)-8-(4-trifluoromethylphenyl)-1H-1,2,4-triazolo[5,1-i]purine]: the melting point is ≥ 256 °C (dec.).
The same measure for `C[S+]([O-])Cc1nc2nc[nH]c2c2nc(-c3ccc(-c4ccccc4)cc3)nn12` (stereo not shown) [Example 60, 8-(4-biphenylyl)-5-methylsulfinylmethyl-1H-1,2,4-triazolo[5,1-i]purine]: ≥ 246 °C (dec.); for `C[S+]([O-])CCc1nc2nc[nH]c2c2nc(-c3ccc(Cl)cc3)nn12` (stereo not shown) [Example 38, 8-(4-chlorophenyl)-5-(2-methylsulfinylethyl)-1H-1,2,4-triazolo[5,1-i]purine]: ≥ 218 °C (dec.).
For the molecule `C[S+]([O-])CCc1nc2nc[nH]c2c2nc(-c3ccc(C(C)(C)C)cc3)nn12` (stereo not shown) [Example 39, 8-(4-t-butylphenyl)-5-(2-methylsulfinylethyl)-1H-1,2,4-triazolo[5,1-i]purine], the melting point is ≥ 162 °C (dec.).
To `CCCOc1ccc(-c2nc3c4[nH]cnc4nc(CCOC)n3n2)cc1` [Example 10, 5-(2-methoxyethyl)-8-(4-n-propoxyphenyl)-1H-1,2,4-triazolo[5,1-i]purine] belongs 231.5 to 232.5 °C; to `CCOP(=O)(O)Cc1nc2nc[nH]c2c2nc(-c3ccc(C(F)(F)F)cc3)nn12`, 268 to 270 °C.
To `CCSCc1nc2nc[nH]c2c2nc(-c3ccc(-c4ccccc4)cc3)nn12` [Example 49, 8-(4-biphenylyl)-5-ethylthiomethyl-1H-1,2,4-triazolo[5,1-i]purine] belongs 264 to 266 °C.
The same measure for `c1ccc(COCCCc2nc3nc[nH]c3c3nc(-c4ccc(-c5ccccc5)cc4)nn23)cc1` [Example 56, 5-(3-benzyloxypropyl)-8-(4-biphenylyl)-1H-1,2,4-triazolo[5,1-i]purine]: 237 to 238 °C; for `CCCOc1ccc(-c2nc3c4[nH]cnc4nc(COC)n3n2)cc1` [Example 9, 5-methoxymethyl-8-(4-n-propoxyphenyl)-1H-1,2,4-triazolo[5,1-i]purine]: no less than 280 °C; for `CCOP(=O)(Cc1nc2nc[nH]c2c2nc(-c3ccc(-c4ccccc4)cc3)nn12)OCC`: 188 to 192 °C.
Regarding `CSCCc1nc2nc[nH]c2c2nc(-c3ccc(C(F)(F)F)cc3)nn12` [Example 27, 5-(2-methylthioethyl)-8-(4-trifluoromethylphenyl)-1H-1,2,4-triazolo[5,1-i]purine], the melting point was ≥ 255 °C (dec.).
To `CS(=O)(=O)CCc1nc2nc[nH]c2c2nc(-c3ccc(Cl)cc3)nn12` [Example 42, 8-(4-chlorophenyl)-5-(2-methylsulfonylethyl)-1H-1,2,4-triazolo[5,1-i]purine] belongs ≥ 244 °C (dec.).
In turn, `COC(=O)CCCc1nc2nc[nH]c2c2nc(-c3ccccc3)nn12` [Example 18, 5-(3-methoxycarbonylpropyl)-8-phenyl-1H-1,2,4-triazolo[5,1-i]purine] returned a melting point of 228 to 230 °C.
The same measure for `COc1cc(-c2nc3c4[nH]cnc4nc(CCSC)n3n2)cc(OC)c1OC` [Example 19, 5-(2-methylthioethyl)-8-(3,4,5-trimethoxyphenyl)-1H-1,2,4-triazolo[5,1-i]purine]: 233 to 234 °C.
The same measure for `COCc1nc2nc[nH]c2c2nc(-c3cc(OC)c(OC)c(OC)c3)nn12` [Example 6, 5-methoxymethyl-8-(3,4,5-trimethoxyphenyl)-1H-1,2,4-triazolo[5,1-i]purine]: no less than 280 °C.
Molecule `CCOCc1nc2nc[nH]c2c2nc(-c3cc(OC)c(OC)c(OC)c3)nn12` [Example 5, 5-ethoxymethyl-8-(3,4,5-trimethoxyphenyl)-1H-1,2,4-triazolo[5,1-i]purine] displayed a melting point of 254 to 255.5 °C.
For `COCc1nc2nc[nH]c2c2nc(-c3ccccc3)nn12` [Example 12, 5-methoxymethyl-8-phenyl-1H-1,2,4-triazolo[5,1-i]purine], the melting point is no less than 280 °C.
Molecule `CSCCc1nc2nc[nH]c2c2nc(-c3ccc(-c4ccccc4)cc3)nn12` [Example 4, 8-(4-biphenylyl)-5-(2-methylthioethyl)-1H-1,2,4-triazolo[5,1-i]purine] showed a melting point of 249 to 251 °C.
The same measure for `CCCOc1ccc(-c2nc3c4[nH]cnc4nc(COCC)n3n2)cc1` [Example 8, 5-ethoxymethyl-8-(4-n-propoxyphenyl)-1H-1,2,4-triazolo[5,1-i]purine]: 262 to 263 °C; for `C[S+]([O-])CCc1nc2nc[nH]c2c2nc(-c3ccc(C(F)(F)F)cc3)nn12` (stereo not shown) [Example 40, 5-(2-methylsulfinylethyl)-8-(4-trifluoromethylphenyl)-1H-1,2,4-triazolo[5,1-i]purine]: ≥ 203 °C (dec.).
Molecule `COC(=O)CCCc1nc2nc[nH]c2c2nc(-c3ccc(-c4ccccc4)cc3)nn12` [Example 21, 8-(4-biphenylyl)-5-(3-methoxycarbonylpropyl)-1H-1,2,4-triazolo[5,1-i]purine] had a melting point of 243 to 245.5 °C.
Regarding `CCOC(=O)CCCCc1nc2nc[nH]c2c2nc(-c3ccc(-c4ccccc4)cc3)nn12` [Example 22, 8-(4-biphenylyl)-5-(4-ethoxycarbonylbutyl)-1H-1,2,4-triazolo[5,1-i]purine], the melting point lay in the range of 241 to 243 °C.
The same measure for `CCOCc1nc2nc[nH]c2c2nc(-c3ccc(C(F)(F)F)cc3)nn12` [Example 25, 5-ethoxymethyl-8-(4-trifluoromethylphenyl)-1H-1,2,4-triazolo[5,1-i]purine]: no less than 280 °C; for `CN(C)CCCc1nc2nc[nH]c2c2nc(-c3ccc(-c4ccccc4)cc3)nn12` [Example 55, 8-(4-biphenylyl)-5-(3-dimethylaminopropyl)-1H-1,2,4-triazolo[5,1-i]purine]: 227 to 230 °C (dec.); for `CSCc1nc2nc[nH]c2c2nc(-c3ccc(-c4ccccc4)cc3)nn12` [Example 48, 8-(4-biphenylyl)-5-methylthiomethyl-1H-1,2,4-triazolo[5,1-i]purine]: 284 to 286 °C.
For `COCc1nc2nc[nH]c2c2nc(-c3ccc(C(F)(F)F)cc3)nn12` [Example 24, 5-methoxymethyl-8-(4-trifluoromethylphenyl)-1H-1,2,4-triazolo[5,1-i]purine], the melting point is no less than 280 °C.
`CS(=O)(=O)CCc1nc2nc[nH]c2c2nc(-c3ccc(C(F)(F)F)cc3)nn12` [Example 44, 5-(2-methylsulfonylethyl)-8-(4-trifluoromethylphenyl)-1H-1,2,4-triazolo[5,1-i]purine]: the melting point was ≥ 261 °C (dec.).
The same measure for `CC(C)(C)c1ccc(-c2nc3c4[nH]cnc4nc(CCS(C)(=O)=O)n3n2)cc1` [Example 43, 8-(4-t-butylphenyl)-5-(2-methylsulfonylethyl)-1H-1,2,4-triazolo[5,1-i]purine]: ≥ 201 °C (dec.); for `CSCCc1nc2nc[nH]c2c2nc(-c3ccc(C(C)(C)C)cc3)nn12` [Example 17, 8-(4-t-butylphenyl)-5-(2-methylthioethyl)-1H-1,2,4-triazolo[5,1-i]purine]: 229 to 231 °C.
